These results are taken from patent publication US20260184712A1, “Heterocyclic Compounds as ENT Inhibitors and Compounds for Use in the Treatment of Cancers” (iTeos Belgium SA, priority 2022, published 2026).

The target in this assay is T1, human ENT1 (Homo sapiens, UniProt Q99808).
T1 construct: JAR cells expressing ENT1 were purchased from ATCC; host or cells: JAR cells
T1 sequence (Q99808 1-456): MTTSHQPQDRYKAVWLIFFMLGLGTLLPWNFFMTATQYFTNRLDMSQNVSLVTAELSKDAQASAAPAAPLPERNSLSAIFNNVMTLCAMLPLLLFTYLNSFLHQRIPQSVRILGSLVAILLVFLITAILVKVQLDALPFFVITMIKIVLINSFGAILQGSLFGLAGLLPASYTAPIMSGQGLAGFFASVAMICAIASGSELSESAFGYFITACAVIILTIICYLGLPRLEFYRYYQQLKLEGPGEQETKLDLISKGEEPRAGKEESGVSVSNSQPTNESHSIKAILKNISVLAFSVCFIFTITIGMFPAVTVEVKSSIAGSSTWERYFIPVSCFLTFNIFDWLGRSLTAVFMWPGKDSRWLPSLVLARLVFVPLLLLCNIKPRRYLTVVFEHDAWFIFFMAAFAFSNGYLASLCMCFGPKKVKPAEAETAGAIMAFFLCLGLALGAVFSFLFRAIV
Briefly: ENT1 binding assay (competition with Sahenta-DY647 on JAR cells). Conditions: competition with SAHENTA-DY647 binding; IC50 categorized; read-out: Binding Assay IC50. Summed up: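 Whole-cell competition on JAR cells (native ENT1): 50,000 cells pre-incubated 30 min at 4 °C with compound in HBSS/10 mM Hepes/0.1% BSA, then 100 nM Sahenta-DY647 added for 30 min at 4 °C. After washing, fluorescence (Ex 630/Em 670 nm) read; IC50 from sigmoidal fit, averaged as pIC50.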

For `C[C@H]1O[C@@H](n2cnc3c(OCCc4ccc(OC(F)F)nc4)ncnc32)[C@H](O)[C@@H]1O` [Compound 278], the IC50 (commonly the midpoint of a concentration-inhibition curve) was more than 500 nM.
Consider `C[C@H]1O[C@@H](n2cnc3c(OCc4c(F)cc(C#N)cc4F)ncnc32)[C@H](O)[C@@H]1O` [Compound 269], for which the IC50 is more than 500 nM.
For `C[C@H]1O[C@@H](n2c(N[C@H]3CC[C@](C)(O)CC3)nc3c(OCc4ccc(C(F)(F)F)cc4)ncnc32)[C@H](O)[C@@H]1O` [Compound 125] the value was 1 to 20 nM; for `C[C@H]1O[C@@H](n2cnc3c(NCc4ccc(-c5ccccn5)cc4)ncnc32)[C@H](O)[C@@H]1O` [Compound 384], more than 500 nM.
For `C[C@H]1O[C@@H](n2cnc3c(C(=O)N4CCCC4c4ccccc4)ncnc32)[C@H](O)[C@@H]1O` (stereo partly drawn) [Compound 253] the value was more than 500 nM; for `C[C@H]1O[C@@H](n2cnc3c(=O)n(Cc4ccc([N+](=O)[O-])cc4)ccc32)[C@H](O)[C@@H]1O` [Compound 415], more than 500 nM.
With `C[C@H]1O[C@H](n2cnc3c(OCc4ccc(C#N)c(F)c4)nc(Cl)nc32)[C@H](O)[C@@H]1O` [Compound 237] the figure was more than 500 nM; with `C[C@H]1O[C@@H](n2cnc3c(OCCc4cnc(C#N)c(F)c4)ncnc32)[C@H](O)[C@@H]1O` [Compound 265], more than 500 nM; with `C[C@H]1O[C@@H](n2c(NC3CCC(O)C3)nc3c(OCc4ccc(Cl)cc4)ncnc32)[C@H](O)[C@@H]1O` (stereo partly drawn) [Compound 101], 20 to 500 nM.
On to `C[C@H]1O[C@@H](n2cnc3c(OCc4cscn4)ncnc32)[C@H](O)[C@@H]1O` [Compound 321], for which the IC50 was more than 500 nM.
For `C[C@H]1O[C@@H](n2cnc3c(NCc4ccc(-c5ncon5)cc4)ncnc32)[C@H](O)[C@@H]1O` [Compound 255] the value was more than 500 nM.
For `C[C@H]1O[C@@H](n2c(N[C@H]3C[C@](C)(O)C3)nc3c(OCc4ccc(OC(F)F)cc4)ncnc32)[C@H](O)[C@@H]1O` [Compound 124] the value was less than 1 nM; for `C[C@H]1O[C@@H](n2cnc3c(SCc4nc(-c5ccc(F)cc5)no4)ncnc32)[C@H](O)[C@@H]1O` [Compound 395], more than 500 nM; for `C[C@H]1O[C@@H](n2cnc3c(OCCc4ccc(C#N)nc4)ncnc32)[C@H](O)[C@@H]1O` [Compound 319], more than 500 nM.
Take `C[C@H]1O[C@@H](n2cnc3c(CN4Cc5ccc(C#N)cc5C4)ncnc32)[C@H](O)[C@@H]1O` [Compound 317]: the IC50 is more than 500 nM.
For `C[C@H]1O[C@@H](n2c(NC3CCCC3)nc3c(OCc4ccc(C(F)(F)F)cc4)ncnc32)[C@H](O)[C@@H]1O` [Compound 92] the value was 1 to 20 nM; for `C[C@H]1O[C@@H](n2cnc3c(SCc4ccc(C(=O)N5CCCC5)cc4)ncnc32)[C@H](O)[C@@H]1O` [Compound 390], more than 500 nM.
For `C[C@H]1O[C@@H](n2cnc3c(NCCc4ccc([N+](=O)[O-])cc4)ncnc32)[C@H](O)[C@@H]1O` [Compound 252] the value was more than 500 nM; for `C[C@H]1O[C@@H](n2cnc3c(OCCc4ccc(C#N)cc4)ncnc32)[C@H](O)[C@@H]1O` [Compound 249], more than 500 nM; for `C[C@H]1O[C@@H](n2c(NC3CCS(=O)(=O)CC3)nc3c(N4CCc5ccc([N+](=O)[O-])cc5C4)ncnc32)[C@H](O)[C@@H]1O` [Compound 136], less than 1 nM.
On to `Cc1cc(CSc2ncnc3c2ncn3[C@@H]2O[C@H](C)[C@@H](O)[C@H]2O)no1` [Compound 348], for which the IC50 was more than 500 nM.
With `C[C@H]1O[C@@H](n2c(NC3CCCC3)nc3c(OCc4ccc([N+](=O)[O-])nc4)ncnc32)[C@H](O)[C@@H]1O` [Compound 85] the figure was less than 1 nM.
For `CC(NC(=O)c1ncnc2c1ncn2[C@@H]1O[C@H](C)[C@@H](O)[C@H]1O)c1ccc([N+](=O)[O-])cc1` (stereo partly drawn) [Compound 305] the value was more than 500 nM; for `CCOC(=O)CC[C@H]1O[C@@H](n2cnc3c(OCc4ccc([N+](=O)[O-])cc4)ncnc32)[C@H](O)[C@@H]1O` [Compound 219], more than 500 nM.
